# Patent EP1984014B1, “USE OF TPO PEPTIDE COMPOUNDS AND PHARMACEUTICAL COMPOSITIONS IN THE TREATMENT OF ANEMIA” (Janssen Pharmaceutica NV, priority 2006, dated 2007)
# Assays:
# [1] = tested on: mice treated with carboplatin; test: Example 2: dosing seven days before and/or 1 hour after carboplatin, hematological parameters in mice; assay type: in vivo, BALB/c mouse
# Method: (§1) The effects of PEGylated TPO Compound No. 1 on mice treated with carboplatin were observed. For all examples herein, a 10 mg/ml stock solution of PEGylated TPO Compound No. 1 was prepared in sterile saline. For mixing, the preparation was placed on a gyratory shaker for 15min. at 200 rpm. This method was used to dissolve PEGylated TPO Compound No. 1 without foaming. The stock was filtered using a GV Millex (0.22um) filter. Dosing solutions were then prepared from this stock using sterile saline. The stock and dosing solutions were prepared fresh on the day of use.
# The possibility that PEGylated TPO Compound No. 1 may sensitize bone marrow hematopoietic stem cells of mice to the toxic effects of carboplatin treatment was examined. For this study, a dose of PEGylated TPO Compound No. 1 was administered to the mice seven days prior to the carboplatin dose or immediately after carboplatin treatment. An additional group was treated with PEGylated TPO Compound No. 1 both prior to and after carboplatin administration. The effect of these dosing regimens on hematological parameters was also observed.
# The groups of mice were treated with either carboplatin or vehicle (Phosphate Buffered Saline, PBS) by ip administration on Days 7 and 8 as delineated below. The optimal dose of carboplatin used to induce thrombocytopenia in the BALB/c mouse strain was previously determined to be a fractionated total dose of 120mg/kg given as two consecutive daily injections (i.e., 2x60mg/kg). Seven days prior to the first carboplatin dose or one (1) hour after the second dose of carboplatin, groups of mice were treated with PEGylated TPO Compound No. 1 (300ug/kg) or vehicle (sterile saline, SS, preservative-free 0.9% sodium chloride) by IV (bolus) injection as delineated in Table 2. An additional group was treated with PEGylated TPO Compound No. 1 both before (Day 0) and after (Day 8, t=1h) the carboplatin dose. All dosing was performed on a per-weight basis (100ul/10g body weight).
# On Days 14, 18, 22 and 26, five mice in each test group were weighed and then euthanised using CO2-asphyxiation and exsanguination via cardiac puncture. The blood samples were transferred to separate EDTA (lavender-top) microcontainers for hematological evaluation. Groups of control mice (5) were processed on Days 14 and 26. The data are presented graphically as group means + SEM.
# [2] = tested on: carboplatin-treated mice; test: Example 4: lower doses (30, 100, 300ug/kg) as survival factor for erythrocyte lineages in carboplatin-treated mice; assay type: in vivo, BALB/c mouse
# Method: as §1
# The ability of PEGylated TPO Compound No. 1 to function as a survival factor for megakaryocyte and erythrocyte lineages in carboplatin-treated mice as determined by changes in hematological parameters was observed. […] In this study, the effect of lower doses of PEGylated TPO Compound No. 1 (i.e., 30, 100 and 300ug/kg) on the survival of erythrocyte lineages was examined to characterize the dose-response for this effect.
# The groups of mice were treated with either carboplatin or vehicle (Phosphate Buffered Saline, PBS) by ip administration on Days -1 and 0 as delineated below. The optimal dose of carboplatin used to induce thrombocytopenia in the BALB/c mouse strain was previously determined to be a fractionated total dose of 120mg/kg given as two consecutive daily injections (i.e., 2x60mg/kg). Approximately one hour following the second dose of carboplatin, groups of mice were treated with PEGylated TPO Compound No. 1 or vehicle (sterile saline, SS, preservative-free 0.9% sodium chloride) by IV (bolus) injection as delineated in Table 4. The dose was administered on a per-weight basis (100ul/10g body weight).
# On Days 6, 8 and 12, five mice in each test group were weighed and then euthanised using CO2-asphyxiation and exsanguinations via cardiac puncture. The blood samples were transferred to separate EDTA (lavender-top) microcontainers for hematologic evaluation. Groups of control mice (5) were processed on Days 6 & 12.
# [3] = tested on: mice treated with two rounds of carboplatin; test: Example 5: two rounds of high-dose carboplatin, hematocrit and survival of mice; assay type: in vivo; details: of the mice not utilized for hematological evaluation; carboplatin alone versus combination therapy
# Method: as §1
# Groups of mice were treated with two rounds of the chemotherapeutic agent (carboplatin) ten days apart, with each round consisting of two consecutive days of carboplatin (i.e., 70 mg/kg/day administered on Days -1 & 0 and Days 10 & 11) as delineated below. The dose of carboplatin utilized for these survival studies exceeded the maximal tolerated dose for mice (i.e., 120 mg/kg; administered as 60 mg/kg/day on 2 consecutive days). One hour following the second dose of carboplatin in each round (i.e., Day 0 and 11) mice were treated with PEGylated TPO Compound No. 1 (100ug/kg) or vehicle (sterile saline, SS, preservative-free 0.9% sodium chloride) by IV (bolus) injection as delineated below. The dose was administered on a per weight basis (100 ul/10g body weight). […]
# [4] = tested on: carboplatin treated mice; test: Example 6: mechanistic study, increasing carboplatin doses, platelets, hematocrit, brain fibrinogen/fibrin histology; assay type: in vivo
# Method: as §1
# For mechanistic studies, groups of mice were treated with vehicle or increasing amounts of carboplatin (i.e., 60, 70 or 80 mg/kg) for 2 consecutive days (Day -1 & Day 0). Approximately one hour following the second dose of carboplatin, groups of mice were treated with PEGylated TPO Compound No.1 (100ug/kg) or vehicle (sterile saline, SS, preservative-free 0.9% sodium chloride) by IV.(bolus) injection as delineated in Table 5.
# On Day 15, the mice in all treatment groups were euthanised using CO2-asphyxiation and exsanguinations via cardiac puncture. The blood samples were transferred to separate EDTA (lavender-top) microtainers for hematologic evaluation. In addition, several organs (including the brains) of control mice and mice treated with 2x70 mg/kg carboplatin without and with co-treatment with PEGylated TPO Compound No.1 were isolated and processed for histological examination. Sections of these tissues were processed immunohistochemically for fibrinogen/fibrin.
substance,measurement,setting,value
Methoxypolyethyleneglycol20000-propionyl-L-Isoleucyl-L-Glutamyl-Glycyl-L-Prolyl-L-Threonyl-L-Leucyl-L-Arginyl-L-Glutaminyl-L-2-Naphthylalanyl-L-Leucyl-L-Alanyl-L-Alanyl-L-Arginyl-Sarcosyl-Ne-(methoxypolyethyleneglycol20000-propionyl-L-Isoleucyl-L-Glutamyl-Glycyl-L-Prolyl-L-Threonyl-L-Leucyl-L-Arginyl-L-Glutaminyl-L-2-Naphthylalanyl-L-Leucyl-L-Alanyl-L-Alanyl-L-Arginyl-Sarcosyl-)-Lysinamide [PEGylated TPO Compound No. 1],carboplatin-induced changes in erythrocyte parameters,"[1]; 300ug/kg iv on Day 0 (only), seven days prior to carboplatin",failed to affect
same,"decreases in hemoglobin levels, RBC counts and hematocrits caused by carboplatin",[1]; 300ug/kg iv on Day 8 (1 hour after the second carboplatin treatment) only,prevented
same,"decreases in hemoglobin levels, RBC counts and hematocrits caused by carboplatin",[1]; 300ug/kg iv on Day 8 with an additional dose on Day 0,prevented
same,body weight loss between Days 7 and 26,"[1]; co-treatment, all regimens, no statistical analysis",prevented this weight loss
same,"onset of signs (hunching, unkempt)",[1]; treatment on Day 8 without or with additional treatment on Day 0,appeared to delay the onset of these signs
same,"severity and duration of signs (hunching, unkempt)",[1]; treatment on Days 0 and 8,decreased the severity and duration
same,weight loss or recovery,[2]; 13-Day study period,did not appear to affect weight loss or recovery
same,decreases in RBC counts and hematocrit induced by carboplatin treatment,"[2]; 30, 100, 300ug/kg iv Day 0",effectively inhibited
same,decrease in hemoglobin levels caused by carboplatin,"[2]; all doses (30, 100, 300ug/kg iv Day 0, about 1 h after carboplatin), by Day 12",totally inhibited
same,anemia induced by carboplatin,"[2]; all doses, on Day 12",completely prevent
same,"altered appearance and behavior (hunched, unkempt, soft stool)",[2]; appeared to be dose-dependent,"decreased the onset, frequency and severity of these signs"
same,mice that died between days 4 and 18,[3],1
same,"small vessels in brain sections, fibrinogen/fibrin staining","[4]; 2x70mg/kg carboplatin plus 100ug/kg iv, Day 15",appeared normal or exhibited fibrinogen/fibrin staining that was only slightly darker than the control group
same,microthrombotic events in brain sections,"[4]; 2x70mg/kg carboplatin plus 100ug/kg iv, entire dose group",single
same,survival,"[4]; 2x80mg/kg carboplatin plus 100ug/kg iv, all of the mice",survived until the scheduled study termination
same,thrombocytopenia or anemia,"[4]; 2x80mg/kg carboplatin plus 100ug/kg iv, on Day 15",did not exhibit thrombocytopenia or anemia
same,decreases in platelet and RBC counts induced by the carboplatin,"[4]; carboplatin 2x60 or 2x70mg/kg, 100ug/kg iv about one hour after second carboplatin dose, Day 15",totally inhibited
same,fibrinogen deposition and blood clots in brain sections,"[4]; carboplatin treated mice, FIG. 19",reduces
